Experimental findings from ChEMBL document CHEMBL4819111, “Steroidal alkaloids isolated from Veratrum grandiflorum Loes. as novel Smoothened inhibitors with anti-proliferation effects on DAOY medulloblastoma cells” (Bioorg Med Chem, 2021) are described below.

The test system of assay [1] is Daoy. Description: Antiproliferative activity against human DAOY cells assessed as cell viability at 10 to 30 uM incubated for 24 hrs by MTT assay relative to control. The format is functional. The conditions noted are these: dose 10-30 µM. (In general: Formazan colour is commonly taken as a measure of viable cells.)
Assay [2] is described as follows: Inhibition of hedgehog pathway in mouse Shh Light II cells transfected with Renilla luciferase and firefly luciferase incubated for 48 hrs by dual luciferase reporter gene assay. The format is cell-based.
The target of assay [3] is Protein smoothened (Homo sapiens) (UniProt Q99835). Description: Binding affinity to recombinant human Flag-6 x His-tagged Smo expressed in human HEK293T cells assessed as reduction in BODIPY-Cyclopamine binding by measuring fluorescence intensity at 30 uM incubated for 2 to 4 hrs by fluorescence microscopic competitive binding analysis relative to control. The format is cell-based. Also on record: scale not given: the % may be the effect or the level left. Conditions: time 2-4 hrs.
Chain of Protein smoothened (Homo sapiens) (Q99835 whole entry): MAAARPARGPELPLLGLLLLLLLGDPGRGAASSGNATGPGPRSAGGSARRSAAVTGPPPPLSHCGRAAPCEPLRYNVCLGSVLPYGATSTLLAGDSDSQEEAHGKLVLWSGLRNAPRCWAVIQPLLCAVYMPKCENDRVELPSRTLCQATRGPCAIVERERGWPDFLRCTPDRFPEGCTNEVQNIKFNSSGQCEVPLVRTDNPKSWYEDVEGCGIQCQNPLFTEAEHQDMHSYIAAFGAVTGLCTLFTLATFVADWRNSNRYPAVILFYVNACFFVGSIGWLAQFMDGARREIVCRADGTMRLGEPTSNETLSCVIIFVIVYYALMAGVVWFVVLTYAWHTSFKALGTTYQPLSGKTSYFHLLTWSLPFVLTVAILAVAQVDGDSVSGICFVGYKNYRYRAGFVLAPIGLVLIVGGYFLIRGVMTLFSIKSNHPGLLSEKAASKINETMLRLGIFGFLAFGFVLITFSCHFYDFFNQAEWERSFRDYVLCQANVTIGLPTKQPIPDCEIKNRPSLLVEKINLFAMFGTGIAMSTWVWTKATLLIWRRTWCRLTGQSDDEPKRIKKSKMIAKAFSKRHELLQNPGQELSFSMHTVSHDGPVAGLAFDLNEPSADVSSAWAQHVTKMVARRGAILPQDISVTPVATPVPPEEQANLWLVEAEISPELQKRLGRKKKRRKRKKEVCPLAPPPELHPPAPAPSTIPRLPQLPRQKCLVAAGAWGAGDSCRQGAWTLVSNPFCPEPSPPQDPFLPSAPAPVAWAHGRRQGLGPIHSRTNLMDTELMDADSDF

Assay [4] shares this target. Description: Binding affinity to recombinant human Flag-6 x His-tagged Smo expressed in human HEK293T cells assessed as reduction in BODIPY-Cyclopamine binding by measuring fluorescence intensity incubated for 2 to 4 hrs by fluorescence microscopic based competitive binding analysis. The format is cell-based. Conditions: dose 3-30 µM, time 2-4 hrs.
Assay [5] shares this target. Description: Binding affinity to recombinant human Flag-6 x His-tagged Smo expressed in human HEK293T cells assessed as reduction in BODIPY-Cyclopamine binding by measuring fluorescence intensity at 3 uM incubated for 2 to 4 hrs by fluorescence microscopic competitive binding analysis relative to control. The format is cell-based. Also on record: scale not given: the % may be the effect or the level left. The conditions noted are these: time 2-4 hrs.

Assay [6] deals with Daoy. Description: Antiproliferative activity against human DAOY cells assessed as cell viability at 0.2 uM incubated for 24 hrs by MTT assay relative to control. Format: functional. The conditions noted are these: read-out: Activity.
Assay [7] deals with Daoy. Kind of assay: Antiproliferative activity against human DAOY cells assessed as cell viability at 30 uM incubated for 24 hrs by MTT assay relative to control. The conditions noted are these: read-out: Activity. The format is functional.
Assay [8] concerns Daoy. Description: Antiproliferative activity against human DAOY cells assessed as reduction in cell viability incubated for 24 hrs by MTT assay. The format is functional, cell-based.

Usually IC50 stands for the concentration at which inhibition is half-maximal.

Take `C[C@H]1CC[C@@H]2N(C1)C[C@H]1[C@@H]3C[C@H]4[C@@H](CC=C5C[C@@H](O)CC[C@@]54C)[C@@H]3C[C@H](O)[C@@H]1[C@]2(C)O`: the Activity in the assay with Daoy [1] is 79.45%; in assay [3] it was 42.8%. Also, the 50% inhibitory concentration (IC50) in assay [2] stood at 950 nM.

Consider `C[C@H]1CCC([C@@H](C)[C@H]2CC[C@H]3[C@@H]4CC=C5C[C@@H](O)CC[C@]5(C)[C@H]4CC[C@]23C)=NC1` [VERAZINE], for which the Activity in the assay on Daoy [1] is 79.45%; in assay [3] it was 47.1%; in assay [4], “Dose-Dependent Effect”. The molecule also gave an IC50 in assay [2] of 1110 nM.

Consider `C[C@H]1CC[C@@H]([C@@H](C)[C@]2(C)CCC3C2=CCC2C3CC=C3C[C@@H](O[C@@H]4O[C@H](CO)[C@@H](O)[C@H](O)[C@H]4O[C@@H]4O[C@@H](C)[C@H](O)[C@@H](O)[C@H]4O)CC[C@@]32C)NC1` (stereo not given in full), for which the values for the Activity (in the assay on Daoy [1]; in assay [5]) were 79.45% and 53.3%, respectively. The molecule further had an IC50 in assay [2] of 12300 nM.

Consider `CC[C@H](C)C(=O)O[C@H]1[C@H](O)[C@H]2[C@@H](CN3C[C@@H](C)CC[C@H]3[C@@]2(C)O)[C@@H]2C[C@@]34O[C@]5(O)[C@@H]([C@@H](O)[C@@H](O)[C@H]3[C@@]21O)[C@]4(C)CC[C@@H]5O`, for which the Activity with Daoy [1] stood at 79.45%; in assay [3] it was 69.4%. Moreover, in assay [2], the 50% inhibitory concentration (IC50) was found to be 14300 nM.

`CS(=O)(=O)c1ccc(C(=O)Nc2ccc(Cl)c(-c3ccccn3)c2)c(Cl)c1` [VISMODEGIB] registered a half-maximal inhibitory concentration (IC50) in assay [2] of 70 nM. In addition, the viability at 0.2 µM in the assay with Daoy [6] amounted to 91.5%.

Take `C[C@@H]1CCN=C([C@@H](C)[C@H]2CC[C@H]3[C@@H]4CC=C5C[C@@H](O)CC[C@]5(C)[C@H]4CC[C@]23C)C1=O`: the figures for the Activity (in the assay on Daoy [1]; in assay [3]; in assay [4]) were 79.45%, 58.7% and “Dose-Dependent Effect”, respectively. This molecule also displayed a half-maximal inhibitory concentration (IC50) in assay [2] of 5810 nM.

Consider `CC1=C2C(=O)[C@H]3C(CC=C4C[C@@H](O)CC[C@@]43C)[C@@H]2CC[C@]12O[C@@H]1C[C@H](C)CN[C@H]1[C@H]2C` (stereo not given in full), for which the Activity with Daoy [1] turned out to be 79.45%; in assay [5] it was 22.3%. Also, the half-inhibitory concentration (IC50) in assay [2] was 2350 nM.

For the molecule `C[C@@H]1CCN=C([C@H](C)[C@H]2CC[C@H]3[C@@H]4CC=C5C[C@@H](O)CC[C@]5(C)[C@H]4CC[C@]23C)C1=O`, the Activity in the assay with Daoy [1] is 79.45%; in assay [3], 54.5%; in assay [4], “Dose-Dependent Effect”. This molecule also yielded an IC50 in assay [2] of 1620 nM.

On to `C[C@H]1CC[C@@H]2[C@@H](C)[C@H]3[C@H](C[C@H]4[C@@H]5CC=C6C[C@@H](O[C@@H]7O[C@H](CO)[C@@H](O)[C@H](O)[C@H]7O[C@@H]7O[C@@H](C)[C@H](O)[C@@H](O)[C@H]7O)CC[C@]6(C)[C@H]5CC[C@]34C)N2C1`, for which the IC50 in assay [2] was found to be 720 nM; in the assay on Daoy [8], 5350 nM. For the same molecule, the Activity in assay [3] amounted to 45.1%. Further, in the assay on Daoy [7], the viability at 30 µM was 13%. In the assay on Daoy [8], the inhibition result is “Dose-Dependent Effect”.

Regarding `C[C@H]1CCC([C@H](C)[C@H]2CC[C@H]3[C@@H]4CC=C5C[C@@H](O)CC[C@]5(C)[C@H]4CC[C@]23C)=NC1`, the results for the Activity (with Daoy [1]; in assay [3]; in assay [4]) were 79.45%, 53.2% and “Dose-Dependent Effect”, respectively. Also, the half-inhibitory concentration (IC50) in assay [2] was 3260 nM.
